Source: paper PMC9166630, “SAR Probing of KX2-391 Provided Analogues With Juxtaposed Activity Profile Against Major Oncogenic Kinases” (Frontiers in Oncology, 2022)

Assays:
[1] = Stability in human liver microsomes; assay type: in vitro ADME; details: for half-life: human liver microsomes with NADPH, 37°C, read-out: Stability HLM t1/2; for Mic. Ctrl. Human % 60 min: human liver microsomes, no NADPH added
Description: Both mouse and human liver microsomes were obtained from Merck KGaA, (Darmstadt, Germany), Cat. No. M9441 (Mouse liver microsomes) and M0317 (Human liver microsomes). Assays were conducted in triplicate in 96-deep well polypropylene plates. […] At five time points, reaction mixture aliquots were transferred to 96-shallow well stop plates on ice containing acetonitrile with 0.1 µM propafenone. […] Standard curves for test compound were generated using 5 concentrations in triplicate that were processed as above but with zero incubation time. Stop plates were centrifuged at 2000 g for 10 min and then supernatant aliquots were transferred to a Waters Aquity® UPLC 700 µL 96-well sample plate with cap mat (Waters, Milford, MA). The amount of compound remaining in the supernatant was quantified by LC/MS/MS using a Waters Xevo TQ MS (electrospray positive mode) coupled to a Waters Aquity® UPLC (BEH column, C18). Propafenone was used as the internal standard. GraphPad® Prism v 5.04 was used for nonlinear fitting of time course data to generate t1/2 values.

EphA3 = target: T1, EphA3 (Homo sapiens, UniProt P29320); experiment: PamChip tyrosine kinase microarray, EphA3; assay type: biochemical; details: 4e 0.1 µM, HL60 lysate
T1 construct: endogenous in cells; host or cells: HL60 lysate
T1 sequence (P29320 21-983): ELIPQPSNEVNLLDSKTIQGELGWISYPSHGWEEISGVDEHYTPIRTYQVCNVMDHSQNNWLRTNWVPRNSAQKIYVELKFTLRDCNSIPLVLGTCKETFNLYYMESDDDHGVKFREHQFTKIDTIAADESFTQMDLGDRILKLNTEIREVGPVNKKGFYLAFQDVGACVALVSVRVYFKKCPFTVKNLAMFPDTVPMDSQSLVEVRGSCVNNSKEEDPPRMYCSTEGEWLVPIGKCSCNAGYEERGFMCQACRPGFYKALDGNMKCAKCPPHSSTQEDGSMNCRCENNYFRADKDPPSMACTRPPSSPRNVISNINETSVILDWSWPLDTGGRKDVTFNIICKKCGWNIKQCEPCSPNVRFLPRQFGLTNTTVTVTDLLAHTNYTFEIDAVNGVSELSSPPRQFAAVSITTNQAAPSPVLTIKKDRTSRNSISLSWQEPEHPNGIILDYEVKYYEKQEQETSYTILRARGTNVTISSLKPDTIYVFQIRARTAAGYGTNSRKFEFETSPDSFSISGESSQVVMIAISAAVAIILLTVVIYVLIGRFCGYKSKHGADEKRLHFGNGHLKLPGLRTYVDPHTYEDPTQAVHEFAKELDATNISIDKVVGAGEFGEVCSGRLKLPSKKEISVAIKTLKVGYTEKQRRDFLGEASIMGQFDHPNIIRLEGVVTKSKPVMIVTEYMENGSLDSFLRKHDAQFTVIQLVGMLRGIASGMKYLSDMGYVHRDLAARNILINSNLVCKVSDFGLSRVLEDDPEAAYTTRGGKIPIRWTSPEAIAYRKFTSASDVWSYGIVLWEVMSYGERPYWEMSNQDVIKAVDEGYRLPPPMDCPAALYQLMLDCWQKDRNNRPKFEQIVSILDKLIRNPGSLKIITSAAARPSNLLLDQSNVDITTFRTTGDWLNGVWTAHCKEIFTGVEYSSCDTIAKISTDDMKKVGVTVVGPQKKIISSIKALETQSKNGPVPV
Description: (§1) The changes in kinase activities induced by treatment with 4e were monitored within the HL60 cell lines using PamGene’s (Hertogenbosch, Netherlands) PamChip® peptide microarray profiler, which quantifies the activities of 144 tyrosine kinases (YK) ([29], [30]) (Figure 7). Results are provided as a log fold change (LFC) heatmap and Mean Kinase Statistic. From the LFC it is apparent that compound 4e, at a concentration of 0.1 µM, induced sizable changes to the activity of several kinases within the cell signaling YK profile (Figure 7A).
(§2) An Upstream Kinase tool was used to generate a putative list of kinases responsible for phosphorylating the phospho-sites on the PamChip (Figure 7B) ([31]). It is an interpretation and is highly dependent on the contents of the underlying phosphorylation databases. A Kinase Score was used for ranking kinases based on their significance and specificity in terms of the set of peptides used for the corresponding kinase. Kinase Statistics indicates the overall change of the peptide set that represents the kinase. Kinase statistics value <0 indicates lower kinase activity in the compound spiked lysate and vice versa ([32], [33]). Table 5 lists the 20 most changed kinases within treated HL60 cell lysates by 0.1 μM 4e, ranked according to their Kinase Score.
(§3) The compound 4e was spiked into HL60 cell lysate at different concentrations (0.001, 0.01, 0.1, 1, 10 and 50 μM). In addition, DMSO was also spiked in HL60 lysate at low concentration (2% v/v) as control. Samples were profiled on PamGene’s Tyrosine Kinase (PTK) arrays in technical replicates, covering a total of 196 phosphorylation sites. Frozen HL60 cultured cell pellet was sent to PamGene. At PamGene, cells were lysed using a lysis buffer and proteases inhibitors cocktail. Protein concentration was measured using standard Bradford assay as per PamGene SOPs. These lysates were further used for generating the PTK activity profiles. For spiking, 4e was received as powder form and dissolved in DMSO at PamGene facility followed by storing at -20°C in small aliquots. PamGene used its in-house bioinformatics toolbox in combination with other methods to generate hypotheses of signaling pathways.

Ret = target: T2, Ret (Homo sapiens, UniProt P07949); experiment: PamChip tyrosine kinase microarray, Ret; assay type: biochemical; details: 4e 0.1 µM, HL60 lysate
T2 construct: endogenous in cells; host or cells: HL60 lysate
Description: as §1, §2, §3

HL60 cells = experiment: Cell cycle analysis (Hoechst 33342, flow cytometry); assay type: cell-based, human; details: HL60, 5 µM, 48 h
Description: The effect of 4e on the distribution of cells in different phases of the cell cycle was determined by flow cytometry using Hoescht 33342 staining in HL60 cells.
HL60 cells (3.5 x 10^5) were seeded in a 6-well plate, were treated with appropriate concentrations of the test compound after attachment, and were incubated at 37°C for 48 h. The treated cells were then collected and washed twice with ice-cold PBS (1X). The washed cells were fixed using 80% ice cold ethanol and stored at -20°C overnight. Fixed cells were washed twice with PBS before staining with 10 µg of Hoechst 33342 (10 µg/mL; Thermo Fisher Scientific, Inc.) and incubated in the dark for 30 min on ice. Cells were washed again with PBS wash and a minimum total of 20,000 events were collected and analyzed using a BD FACSAria III flow cytometer (BD Biosciences, USA). Flowlogic software version 7.0/7.2.1 (Inivai Technologies Pvt Ltd, Victoria, Australia) was used to obtain the percentage distribution of cells in G1, S, and G2/M phases in the singlet-gated population. For validation purpose, we included KX2-391 as a positive reference in this assay.

Yes = experiment: PamChip tyrosine kinase microarray, Yes; assay type: biochemical, human; details: 4e 0.1 µM, HL60 lysate
Description: as §1, §2
The two multiple-kinase tests (PamChip and Phosphokinase Profiler) provided strong evidence of very minor involvement of Src in the cellular activities of 4e. However, the question must be raised about the effect of the 4e on other SRC family kinase (SFK). To address this point, we must highlight that both R&D phosphokinase profiler and PamChip feature Yes, Fgr, Lyn, Lck and Src while Fyn, Hck, Blk and Frk activities are tested in the PamChip only. The signals of SFKs in the R&D Phosphokinase Profiler were too weak to detect in both untreated (control) and 4e-treated HL60 cells. In PamChip assay, most of SFK’s were not ranked in the top 20 affected kinases (Table 5). In addition, their Specificity Score were very low (Table 6) indicating their marginal importance to the cell killing activities of 4e. Fgr kinase which ranked 7th in the list (Table 5) was the only SFK member that seems to be affected by the compound, albeit with low Specificity Score (1.03).
The compound 4e was spiked into HL60 cell lysate at different concentrations (0.001, 0.01, 0.1, 1, 10 and 50 μM). In addition, DMSO was also spiked in HL60 lysate at low concentration (2% v/v) as control. Samples were profiled on PamGene’s Tyrosine Kinase (PTK) arrays in technical replicates, covering a total of 196 phosphorylation sites. Frozen HL60 cultured cell pellet was sent to PamGene. […] Protein concentration was measured using standard Bradford assay as per PamGene SOPs. […]

T2 sequence (P07949 29-1114): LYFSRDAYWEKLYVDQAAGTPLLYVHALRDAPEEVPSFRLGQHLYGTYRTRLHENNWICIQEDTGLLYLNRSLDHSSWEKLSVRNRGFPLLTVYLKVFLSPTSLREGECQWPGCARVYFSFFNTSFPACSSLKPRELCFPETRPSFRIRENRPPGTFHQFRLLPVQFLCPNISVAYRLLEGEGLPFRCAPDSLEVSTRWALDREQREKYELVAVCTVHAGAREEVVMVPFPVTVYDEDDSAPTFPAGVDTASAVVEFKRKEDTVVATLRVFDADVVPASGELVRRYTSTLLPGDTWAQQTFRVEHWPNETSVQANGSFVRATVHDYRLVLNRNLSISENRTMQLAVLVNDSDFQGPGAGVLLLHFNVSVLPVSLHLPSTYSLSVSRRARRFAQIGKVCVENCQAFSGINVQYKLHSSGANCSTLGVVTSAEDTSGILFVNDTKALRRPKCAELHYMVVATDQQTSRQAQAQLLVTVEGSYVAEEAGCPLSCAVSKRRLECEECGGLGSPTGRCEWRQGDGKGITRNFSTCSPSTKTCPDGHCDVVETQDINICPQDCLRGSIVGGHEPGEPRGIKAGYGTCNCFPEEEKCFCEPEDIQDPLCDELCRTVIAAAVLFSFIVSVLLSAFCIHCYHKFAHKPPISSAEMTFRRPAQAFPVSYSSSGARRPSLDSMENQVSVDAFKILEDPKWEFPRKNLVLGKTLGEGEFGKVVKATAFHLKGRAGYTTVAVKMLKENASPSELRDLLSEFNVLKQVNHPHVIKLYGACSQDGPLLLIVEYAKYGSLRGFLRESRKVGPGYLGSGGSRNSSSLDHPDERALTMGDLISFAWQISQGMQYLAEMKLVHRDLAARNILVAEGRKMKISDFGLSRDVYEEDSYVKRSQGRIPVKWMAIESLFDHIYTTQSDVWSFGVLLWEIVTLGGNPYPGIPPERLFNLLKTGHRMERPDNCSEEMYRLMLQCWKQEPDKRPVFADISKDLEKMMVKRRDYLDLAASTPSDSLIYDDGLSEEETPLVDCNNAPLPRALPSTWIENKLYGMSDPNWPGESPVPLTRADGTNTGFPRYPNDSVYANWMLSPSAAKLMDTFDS

| SMILES | half-life [1] | Mic. Ctrl. Human % 60 min [1] | Mean Final Score (EphA3) | Mean Kinase Statistic (EphA3) | Mean Significance Score (EphA3) | Mean Specificity Score (EphA3) | Mean Final Score (Ret) | Mean Kinase Statistic (Ret) | Mean Significance Score (Ret) | Mean Specificity Score (Ret) | Apoptosis (cell cycle profile) (HL60 cells) | G2M population (HL60 cells) | Mean Final Score (Yes) | Mean Kinase Statistic (Yes) | Mean Significance Score (Yes) | Mean Specificity Score (Yes) |
| --- | --- | --- | --- | --- | --- | --- | --- | --- | --- | --- | --- | --- | --- | --- | --- | --- |
| O=C(Cc1ccc(NC(=O)c2cccc(Cl)n2)cc1)NCc1ccccc1 [Compound 4n, N-(4-(2-(benzylamino)-2-oxoethyl)phenyl)-6-chloropicolinamide] | 40.1 min | 98% |  |  |  |  |  |  |  |  |  |  |  |  |  |  |
| O=C(Cc1ccc(NC(=O)c2cccc(Cl)c2)cc1)NCc1ccccc1 [Compound 4e, N-(4-(2-(benzylamino)-2-oxoethyl)phenyl)-3-chlorobenzamide] | > 60 min | 102% | 1.9564 | -0.6074 | 1.4547 | 0.5017 | 2.3893 | -0.7112 | 1.0953 | 1.2940 | 14.66% | 24.51% | 1.1516 | -0.4139 | 1.0126 | 0.1390 |
